Laboratory results as given in US20260242391A1 (priority 2023, published 2026).

Columns and labels:
in vitro = settings: human
HL-60 = HL-60 differentiation potency; type: cell-based; settings: Homo sapiens

SMILES | IC50 (in vitro) [µM] | EC50 (HL-60) [µM]
C[C@H]1[C@@H](OCC(=O)N2C[C@@H](O)C[C@H]2C(=O)O)O[C@@H]2O[C@@]3(C)CC[C@H]4[C@H](C)CC[C@@H]1[C@@]24OO3 [Compound 160, (2S,4S)-4-hydroxy-1-(2-(((3R,5aS,6R,8aS, 9R,10S,12R, 12aR)-3,6,9-trimethyldeca-hydro-12H-3,12-epoxy[1,2]dioxepino[4,3-i]isochromen-10-yl)oxy)acetyl) pyrrolidine-2-carboxylic acid] | > 20 | > 20
C[C@H]1[C@@H](OCC(=O)N2CC[C@@H](C(=O)O)C2)O[C@@H]2O[C@@]3(C)CC[C@H]4[C@H](C)CC[C@@H]1[C@@]24OO3 [Compound 161, (R)-1-(2-(((3R,5aS,6R,8aS, 9R,10S,12R, 12aR)-3,6,9-trimethyldeca-hydro-12H-3,12-epoxy[1,2]dioxepino[4,3-i]isochromen-10-yl)oxy)acetyl) pyrrolidine-3-carboxylic acid] | > 20 | > 20
C[C@H]1[C@H](OCC(=O)N2C[C@H]3[C@@H]([C@H]2C(=O)O)C3(C)C)O[C@@H]2O[C@@]3(C)CC[C@H]4[C@H](C)CC[C@@H]1[C@@]24OO3 [Compound 162, (1R,2S,5S)-6,6-dimethyl-3-(2-(((3R,5aS,6R,8aS, 9R,10R,12R, 12aR)-3,6,9-trimethyldeca-hydro-12H-3,12-epoxy[1,2]dioxepino[4,3-i]isochromen-10-yl)oxy)acetyl)-3-azabicyclo[3.1.0] hexane-2-carboxylic acid] | > 20 | 5.75
C[C@H]1[C@H](OCC(=O)N2CC[C@@H](C(=O)O)C2)O[C@@H]2O[C@@]3(C)CC[C@H]4[C@H](C)CC[C@@H]1[C@@]24OO3 [Compound 163, (R)-1-(2-(((3R,5aS,6R,8aS, 9R,10R,12R, 12aR)-3,6,9-trimethyldeca-hydro-12H-3,12-epoxy[1,2]dioxepino[4,3-i]isochromen-10-yl)oxy)acetyl) pyrrolidine-3-carboxylic acid] | > 20 | > 20
C[C@H]1[C@H](OCC(=O)N2CCC(C(=O)O)CC2)O[C@@H]2O[C@@]3(C)CC[C@H]4[C@H](C)CC[C@@H]1[C@@]24OO3 [Compound 164, 1-(2-(((3R,5aS,6R,8aS, 9R,10R,12R, 12aR)-3,6,9-trimethyldeca-hydro-12H-3,12-epoxy[1,2]dioxepino[4,3-i]isochromen-10-yl)oxy)acetyl) piperidine-4-carboxylic acid] | > 20 | > 20
C[C@H]1[C@@H](OCC#Cc2ccc(C(=O)O)cc2F)O[C@@H]2O[C@@]3(C)CC[C@H]4[C@H](C)CC[C@@H]1[C@@]24OO3 [Compound 165, 3-fluoro-4-(3-(((3R,5aS,6R,8aS, 9R,10S,12R, 12aR)-3,6,9-trimethyldeca-hydro-12H-3,12-epoxy[1,2]dioxepino[4,3-i]isochromen-10-yl)oxy)prop-1-yn-1-yl) benzoic acid] | 0.3 | 0.0795
C[C@H]1[C@H](OCC#Cc2ccc(C(=O)O)cc2F)O[C@@H]2O[C@@]3(C)CC[C@H]4[C@H](C)CC[C@@H]1[C@@]24OO3 [Compound 166, 3-fluoro-4-(3-(((3R,5aS,6R,8aS, 9R,10R,12R, 12aR)-3,6,9-trimethyldeca-hydro-12H-3,12-epoxy[1,2]dioxepino[4,3-i]isochromen-10-yl)oxy)prop-1-yn-1-yl)benzoic acid] | 1.8 | 0.0669
C[C@H]1[C@@H](OCc2cc(C(=O)O)ccc2Cl)O[C@@H]2O[C@@]3(C)CC[C@H]4[C@H](C)CC[C@@H]1[C@@]24OO3 [Compound 167, 4-chloro-3-((((3R,5aS,6R,8aS, 9R,10S,12R, 12aR)-3,6,9-trimethyldeca-hydro-12H-3,12-epoxy[1,2]dioxepino[4,3-i]isochromen-10-yl)oxy)methyl) benzoic acid] | 10.5 | 0.132
